{"source": "patent US8057990B2", "about": "“Screening method” (Takeda Pharmaceutical Company Limited, priority 2005, dated 2011)", "key": {"human GPR30 [1]": {"biological_target": "T1, human GPR30 (Homo sapiens, UniProt Q99527, P21A/Q20H)", "T1 sequence (Q99527 whole entry Q20H/P21A)": "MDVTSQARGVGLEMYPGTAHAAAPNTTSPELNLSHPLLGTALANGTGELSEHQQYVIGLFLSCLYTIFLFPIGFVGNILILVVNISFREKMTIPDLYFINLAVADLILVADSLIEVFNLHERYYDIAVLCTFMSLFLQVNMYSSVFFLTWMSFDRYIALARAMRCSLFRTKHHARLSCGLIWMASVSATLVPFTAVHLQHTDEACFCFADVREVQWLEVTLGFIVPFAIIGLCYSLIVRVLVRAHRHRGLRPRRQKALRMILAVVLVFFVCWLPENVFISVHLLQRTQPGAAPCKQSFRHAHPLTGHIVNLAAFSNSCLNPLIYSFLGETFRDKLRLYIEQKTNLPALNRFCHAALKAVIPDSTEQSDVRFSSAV", "details": "human GPR30 expression CHO cells; tacrine 0.67-67 μM; Fluo 3-AM", "method": "200 μl of each type of cells was planted in each well of a 96-well plate for FLIPR (Black plate clear bottom, Coster) using an 8-channel pipette (3.0×10^4 cells/200 μl/well) and cultured in a 5% CO2 incubator at 37° C. overnight (hereinafter, referred to as the “cell plate”) before use. 20 ml of H/HBSS, 200 μl of 250 mM Probenecid, and 200 μl of fetal bovine serum (FBS) were mixed. 2 vials (50 μg) of Fluo 3-AM (Dojindo Laboratories) were lysed in […] of dimethylsulfoxide and 40 μl of 20% Pluronic acid (Molecular Probes), and the resultant substance was added to H/HBSS-Probenecid-FBS and mixed. Then, the resultant mixture was divided into units of 100 μl and put to each well of the cell plate deprived of the culture fluid using an 8-channel pipette, and incubated in a 5% CO2 incubator at 37° C. for 1 hour (colorant loading). 8 μl of a tacrine solution (Aldrich Chemical Company) of various concentrations was added to 259 μl of H/HBSS containing 2.5 mM Probenecid, 0.1% CHAPS and 0.1% BSA, and diluted. […] The cell plate and the sample plate were set in an FLIPR (501 of sample was transferred from the sample plate to the cell plate by the FLIPR), and a change of the fluorescent intensity was measured over-time. Thus, the intracellular calcium ion concentration increase activity was measured."}, "rat GPR30": {"biological_target": "rat GPR30 (Rattus norvegicus, UniProt O08878, S320N)", "sequence (O08878 whole entry S320N)": "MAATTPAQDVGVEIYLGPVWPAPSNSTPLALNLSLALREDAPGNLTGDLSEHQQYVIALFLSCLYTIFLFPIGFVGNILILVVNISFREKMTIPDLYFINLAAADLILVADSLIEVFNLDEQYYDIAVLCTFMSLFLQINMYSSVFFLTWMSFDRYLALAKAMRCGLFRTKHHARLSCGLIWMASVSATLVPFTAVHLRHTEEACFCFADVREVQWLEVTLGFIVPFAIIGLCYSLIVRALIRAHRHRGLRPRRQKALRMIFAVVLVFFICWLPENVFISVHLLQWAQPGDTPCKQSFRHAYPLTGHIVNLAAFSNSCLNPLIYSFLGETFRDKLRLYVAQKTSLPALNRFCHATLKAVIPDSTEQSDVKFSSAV", "details": "rat GPR30 expression CHO cells; tacrine 0.67-67 μM; Fluo 3-AM", "method": "The plasmid pAK-rGPR30 was transduced by electroporation into CHO/dhfr^− cells (American Type Culture Collection) in the method described in REFERENCE EXAMPLE 1, and transformed CHO cells expressing rat GPR30 (hereinafter, referred to simply as “rat GPR30 cells”) at a high ratio were selected.\n200 μl of each type of cells was planted in each well of a 96-well plate for FLIPR (Black plate clear bottom, Coster) using an 8-channel pipette (3.0×10^4 cells/200 μl/well) and cultured in a 5% CO2 incubator at 37° C. overnight (hereinafter, referred to as the “cell plate”) before use. 20 ml of H/HBSS, 200 μl of 250 mM Probenecid, and 200 μl of fetal bovine serum (FBS) were mixed. 2 vials (50 μg) of Fluo 3-AM (Dojindo Laboratories) were lysed in […] of dimethylsulfoxide and 40 μl of 20% Pluronic acid (Molecular Probes), and the resultant substance was added to H/HBSS-Probenecid-FBS and mixed. […] The cell plate and the sample plate were set in an FLIPR (501 of sample was transferred from the sample plate to the cell plate by the FLIPR), and a change of the fluorescent intensity was measured over-time. Thus, the intracellular calcium ion concentration increase activity was measured."}, "human GPR30 [2]": {"biological_target": "T1, human GPR30", "details": "GPR30 expression HeLa cells; tacrine 100 μM; 4 hours", "method": "(§1) Separately, a reporter plasmid of pSRE-Luc (Invitrogen) ligated with a luciferase gene as a reporter at a downstream position of a serum response element (SRE), and expression vector plasmids for human GαoA, human Gβ1 and human Gγ2, which are each a kind of G proteins, were prepared in substantially the same manner. HeLa cells were used as host cells for transfecting the G protein-coupled receptor protein expression plasmid pAK-hGPR30 and the reporter plasmids. The cells were planted on a 384-well assay plate (COSTAR 3704) at a ratio of 4000 cells/well in a culture volume of 25 μl, and incubated overnight. As the medium, DMEM (Invitrogen) supplemented with 10% fetal bovine serum and 1% MEM non-essential amino acids solution (DMEM/NEAA) was used. Each plasmid was diluted to a concentration of 240 ng/μl. Plasmids were added to 250 μl of Opti-MEM-I (Invitrogen) at a ratio of 1 μl of pAK-hGPR30, 9 μl of the reporter plasmid, and 1 μl of each of the G protein expression plasmids for GαoA, Gβ1 and Gγ2. […] After the cells were lysed and thoroughly mixed with the substrate, the chemiluminescence level corresponding to the expression induction level of the reporter gene in each well was measured on a plate reader (EnVision™, Perkin Elmer)."}, "[3]": {"system": "HeLa cells not expressing human GPR30", "details": "pAKKO-1.11H-transfected control HeLa cells; tacrine 100 μM; 4 hours", "method": "as §1"}}, "data": [{"molecule": "Nc1c2c(nc3ccccc13)CCCC2", "note": "[tacrine, 1,2,3,4-tetrahydro-9-acridinamine]", "values": [{"measurement": "intracellular calcium ion concentration (change of fluorescent intensity, FLIPR)", "setting": "human GPR30 [1]", "result": "increased in a concentration-depending manner"}, {"measurement": "intracellular calcium ion concentration (change of fluorescent intensity, FLIPR)", "setting": "rat GPR30", "result": "increased in a concentration-depending manner"}, {"measurement": "luciferase activity (pSRE-Luc reporter)", "setting": "human GPR30 [2]", "result": "significant increase"}, {"measurement": "luciferase activity (pSRE-Luc reporter)", "setting": "[3]", "result": "no significant activity increase"}]}]}
